Assay results taken from EP4744657A1, “THERAPEUTIC AGENT FOR HUMAN GRAFT VERSUS HOST DISEASE AND COMBINATION THEREOF” (National University Corporation Okayama University, priority 2023, dated 2025).
Values joined by “and” are separate entries in the source; they are usually repeats but may differ in a detail not shown here. Equal values may be shown once.

Columns and labels:
[1] = Plasma concentration of active ingredient in patients, measured by HPLC (Example 3); format: in vivo, human
Experimental: To a total of 11 patients, a single dose of 2.0 mg, 4.0 mg, or 6.0 mg of tamibarotene was administered.
Moreover, to a total of 6 patients, repeated doses of 8.0 mg or 10.0 mg of tamibarotene were administered.
For the 2.0 mg dose, one tablet (2 mg of tamibarotene) was administered after breakfast using a tablet of 2 mg tamibarotene; for the 4.0 mg dose, one tablet (2 mg of tamibarotene) was administered after breakfast and one tablet (2 mg of tamibarotene) was administered after dinner; and for the 6.0 mg dose, two tablets (4 mg of tamibarotene) were administered after breakfast and one tablet (2 mg of tamibarotene) was administered after dinner.
For the 8.0 mg dose, two tablets (4 mg of tamibarotene) after breakfast and two tablets (4 mg of tamibarotene) after dinner were administered repeatedly for 35 to 46 days, using a tablet of 2 mg tamibarotene. For the 10.0 mg dose, three tablets (6 mg of tamibarotene) after breakfast and two tablets (4 mg of tamibarotene) after dinner were administered repeatedly for 34 to 59 days, using a tablet of 2 mg tamibarotene. […]

[2] = test system: chronic graft versus host disease (chronic GVHD); assay: Clinical study of efficacy and safety of tamibarotene for chronic GVHD (Examples 1 and 2); format: in vivo, human; details: for Eyeball: subjects with improvement in Schirmer's test: out of the 18 subjects; for subjects for whom the overall judgment was PR: oral, start 4 mg per day, with PSL/steroid
Experimental: Tamibarotene was administered to a patient with chronic graft versus host disease (chronic GVHD) after allogeneic hematopoietic stem cell transplantation, and efficacy thereof was studied. Main selection criteria for subjects are as follows: • (A) An age is 18 years or older and younger than 85 years • (B) A Karnofsky performance status (KPS) is 60 or more • (C) A steroid treatment-refractory or steroid treatment-dependent patient who has started treatment with 0.5 mg/kg or more of PSL (prednisolone) (or received corresponding steroid treatment) as a first-line treatment, and who falls under any of the following (1) through (4): • (1) A patient who needs additional treatment because of exacerbation even after 1 mg/kg or more of PSL has been administered for 2 weeks; • (2) A patient who has not been ameliorated after 4 weeks of treatment, including administration of 0.5 mg/kg or more of PSL for 2 weeks, and needs additional treatment. • (3) A patient whose GVHD symptom has relapsed or worsened within a period in which the dose of the steroid was reduced • (4) A steroid treatment-dependent patient for whom a dose reduction from 10 mg/day (or corresponding steroid treatment) is difficult Tamibarotene was administered to 18 subjects. As the administration method, 2 mg tablets of tamibarotene were administered orally for 24 weeks. The administration was started with 2 doses (a 2 mg tablet, twice) after breakfast and dinner, i.e., 4 mg (equivalent to 3 mg/m^2) per day. PSL or steroid administration was also continued daily. 2 mg tablets of tamibarotene were administered orally for 24 weeks. Administration was started at 4 mg (equivalent to 3 mg/m^2) per day, i.e., twice daily after breakfast and dinner (one 2 mg tablet in each of the morning and evening). If an adverse event was mild (grade 0 to 1), the dose could be increased to 8 mg per day (two 2 mg tablets in each of the morning and evening) after 4 weeks of continuation (in a case of 6 mg per day, two 2 mg tablets were to be taken after breakfast and one 2 mg tablet after dinner). In a case of grade 2 for an unexpected adverse event (for which a causal relationship could not be ruled out), or grade 3 for an expected adverse event (for which a causal relationship could not be ruled out), the dose was reduced to 2 mg per day (one tablet once after breakfast), and administration was continued. Alternatively, after a 2-week drug holiday, administration was restarted at 2 mg per day and continued, after confirming that the adverse event had improved to a grade one level lower than that before the drug holiday. However, in regard to an abnormal liver function of grade 3, in a case of a patient who had grade 3 liver dysfunction due to chronic GVHD from before enrollment, administration could be continued without dose reduction or drug holiday, even if the abnormal liver function remained at grade 3. In a case where drug holidays and restarts were repeated with administration at 2 mg per day due to an adverse event, administration could be continued by reducing the dose to 2 mg on alternate days. The survival rate without treatment failure (death, relapse, implementation of additional treatment) at the end of tamibarotene administration (week 24), i.e., failure-free survival (FFS), was evaluated. In a case where additional treatment was implemented for chronic GVHD, such a case was considered treatment failure at that point in time. In regard to the additional treatment herein, a change in the steroid dose was not considered, but in a case where the dose was increased to an amount exceeding 1 mg/kg/day, it was considered that additional treatment had been implemented. [Table 1] For the skin, eyeball, and gastrointestinal tract, the NIH organ-specific scores described in Biol. Blood Marrow Transplant, 2005 11(12), 945-56 were used. For the skin, a therapeutic effect was further evaluated using a total skin score. In addition, the 15-point Schubert scale in Table 2 was used for the oral cavity. […]

[3] = week 12 of administration, 18 subjects
[4] = week 24, out of the 16 subjects
[5] = week 24 of administration, 5/18
[6] = week 24 of administration, 18 subjects

CC1(C)CCC(C)(C)c2cc(NC(=O)c3ccc(C(=O)O)cc3)ccc21 [tamibarotene, 4-[(5,6,7,8-tetrahydro-5,5,8,8-tetramethyl-2-naphthalenyl)carbamoyl]benzoic acid]
Plasma concentration ([1]; after 8 hours from a single dose of 2.0 mg, lowest concentration list, 480 min): 3.26 ng/mL | Plasma concentration ([1]; after 10 hours from a single dose of 4.0 mg, lowest concentration list, 600 min): 8.03 ng/mL and 7.01 ng/mL | Plasma concentration ([1]; after 24 hours from single dose of 6.0 mg, individual values, lowest concentration list, 1440 min): 1.08 ng/mL and 1.14 ng/mL and 2.50 ng/mL | Plasma concentration ([1]; after hours (figure not given) from repeated doses (46 days) of 8.0 mg, highest concentration list): 100.09 ng/mL | concentration at 4 h ([1]; human, plasma, po, 2 mg, after 4 hours from a single dose of 2.0 mg, lowest concentration list): 8.98 ng/mL | concentration at 8 h ([1]; human, plasma, po, 2 mg, after 8 hours from a single dose of 2.0 mg, lowest concentration list): 5.04 ng/mL | concentration at 10 h ([1]; human, plasma, po, 4 mg, after 10 hours from a single dose of 4.0 mg, lowest concentration list): 9.56 ng/mL | concentration at 4 h ([1]; human, plasma, po, 6 mg, after 4 hours from a single dose of 6.0 mg, highest concentration list): 80.2 ng/mL | concentration at 4 h ([1]; human, plasma, po, 6 mg, after 4 hours from repeated doses (47 days) of 6.0 mg, highest concentration list): 92.5 ng/mL | concentration at 6 h ([1]; human, plasma, po, 6 mg, after 6 hours from a single dose of 6.0 mg, lowest concentration list): 7.42 ng/mL | concentration at 10 h ([1]; human, plasma, po, 6 mg, after 10 hours from a single dose of 6.0 mg, lowest concentration list): 7.72 ng/mL | concentration at 4 h ([1]; human, plasma, po, 8 mg, after 4 hours from repeated doses (35 days) of 8.0 mg, highest concentration list): 84.6 ng/mL | concentration at 4 h ([1]; human, plasma, po, 8 mg, after 4 hours from repeated doses (46 days) of 8.0 mg, highest concentration list): 85.2 ng/mL | concentration at 24 h ([1]; human, plasma, po, 8 mg, after 24 hours from repeated doses (46 days) of 8.0 mg, lowest concentration list): 2.92 ng/mL | concentration at 2 h ([1]; human, plasma, po, 10 mg, after 2 hours from repeated doses (34 days) of 10.0 mg, highest concentration list): 88 ng/mL | concentration at 2 h ([1]; human, plasma, po, 10 mg, after 2 hours from repeated doses (58 days) of 10.0 mg, highest concentration list): 199 ng/mL | concentration at 2 h ([1]; human, plasma, po, 10 mg, after 2 hours from repeated doses (59 days) of 10.0 mg, highest concentration list): 119 ng/mL | concentration at 4 h ([1]; human, plasma, po, 10 mg, after 4 hours from repeated doses (34 days) of 10.0 mg, highest concentration list): 85.6 ng/mL | concentration at 4 h ([1]; human, plasma, po, 10 mg, after 4 hours from repeated doses (36 days) of 10.0 mg, highest concentration list): 161 ng/mL | concentration at 4 h ([1]; human, plasma, po, 10 mg, after 4 hours from repeated doses (58 days) of 10.0 mg, highest concentration list): 88.7 ng/mL | concentration at 4 h ([1]; human, plasma, po, 10 mg, after 4 hours from repeated doses (59 days) of 10.0 mg, highest concentration list): 82.1 ng/mL | concentration at 8 h ([1]; human, plasma, po, 10 mg, after 8 hours from repeated doses (36 days) of 10.0 mg, highest concentration list): 112 ng/mL | follow-up of single subjects whose overall judgment was PR ([2]; 2 years after the end of treatment, one subject per line): able to discontinue the administration of PSL and reduce the dose of FK506 at 2 years after the end of treatment without exacerbation of chronic GVHD | knee joint flexion ([2]; Case 1, start vs end of administration, 200 days, Fig. 1): notable improvement in knee joint flexion | knee joint extension ([2]; Case 1, start vs end of administration, 200 days, tamibarotene/prednisolone/tacrolimus 4 mg/15 mg/4 mg at start, Fig. 1): notable improvement in knee joint extension | cutis symptom on knee ([2]; Case 2, start vs end of administration, 137 days, Fig. 2): notable amelioration of pigmentation and skin sclerosis in the knee | cutis symptom on lower part of back ([2]; Case 2, start vs end of administration, 137 days, tamibarotene/predonine/tacrolimus 4 mg/11 mg/0.2 mg at start, Fig. 2): amelioration of pigmentation and skin sclerosis in the lower part of the lower back | oral cavity symptom ([2]; Case 3, start vs end of administration, 83 days, tamibarotene/prednisolone/tacrolimus 4 mg/10 mg/0.6 mg, Fig. 3): healing of ulcer and notable amelioration of erythema were seen in the oral cavity | response rate for each organ (Fig. 4), in words ([2]; all cases in Example 1): the effect was seen in chronic GVHD of the eyeball and liver in addition to the skin and the oral cavity, or chronic GVHD maintained without exacerbation | overall response rate ([2]; entire administered population, final analysis, NIH Consensus Development Project Criteria (2005), 6/18, 95% confidence interval 13.3% to 59.0%): 33.3% | overall response rate based on the NIH Consensus Development Project Criteria (2014) ([2]; entire administered population, sensitivity analysis, 7/18 cases, 95% confidence interval 17.3% to 64.3%): 38.9% | NIH response rate for the joints and fascia ([2]; human, in vivo): 11% | response rate for the lung function score ([2]; human, in vivo): unchanged | NIH response rate for the liver ([2]; influence of other diseases difficult to consider): 23% | Eyeball: subjects with improvement in Schirmer's test ([2]; left eye): 7 subjects | NIH response rate for the gastrointestinal tract ([2]; n=5): 20% | NIH response rate for the genitals ([2]; n=6): 17% | amelioration in the symptom after administration ([2]; patients in Examples, no amelioration before with various drugs): amelioration in the symptom was seen in all the patients | Eyeball: subjects with improvement in Schirmer's test ([2]; right eye): 5 subjects | Oral cavity: symptoms ([2]; several subjects): healing of ulcer and notable amelioration of erythema were seen in several subjects | Skin: symptoms ([2]; several subjects): notable amelioration of edema, skin sclerosis, pigmentation, or erythema in several subjects | range of joint motion ([2]; subjects in whom a therapeutic effect was confirmed): notable improvement in the range of joint motion | subjects for whom the overall judgment was SD [2, 3]: 7 subjects | subjects for whom the overall judgment was PR [2, 3]: 5 subjects | subjects in whom the dose of PSL could be reduced by 50% or more ([2]; week 24, compared with start of tamibarotene administration, 18 subjects): 3 subjects | subjects in whom the dose of PSL could be reduced ([2]; week 24, compared with start of treatment, 18 subjects): 7 subjects | Eyeball: NIH response rate ([2]; week 24, 14 subjects): 14% | Eyeball: subjects evaluated as CR ([2]; week 24, 14 subjects): No subject | Eyeball: subjects evaluated as PR ([2]; week 24, 14 subjects): two | Oral cavity: NIH response rate ([2]; week 24, 16 subjects): 25% | Oral cavity: subjects evaluated as CR ([2]; week 24, 16 subjects): Two | Oral cavity: subjects evaluated as PR ([2]; week 24, 16 subjects): two | Skin: NIH response rate ([2]; week 24, 16 subjects): 25% | Skin: subjects evaluated as CR ([2]; week 24, 16 subjects): One | Skin: subjects evaluated as PR ([2]; week 24, 16 subjects): three | Oral cavity: subjects with improved score on the 15-point Schubert scale [2, 4]: 10 subjects | Skin: subjects with improved total skin score [2, 4]: 8 subjects | failure-free survival (FFS) [2, 5]: 28% | response rate [2, 5]: 28% | subjects for whom the overall judgment was SD [2, 6]: 7 subjects | subjects for whom the overall judgment was PR [2, 6]: 5 subjects
